Tests used:
[1] = Pharmacokinetics in mice (plasma and brain); type: in vivo, mouse; conditions: mice; for brain to plasma ratio: i.v. or p.o.
Procedure: ICR (CD-1) male mice were fasted at least three hours and water was available ad libitum before the study. Animals were housed in a controlled environment, target conditions: temperature 18 to 29° C., relative humidity 30 to 70%. Temperature and relative humidity was monitored daily. An electronic time controlled lighting system was used to provide a 12 hr light/12 hr dark cycle. 3 mice for each indicated time point were administered 30 mg/Kg CA39 or CA77 by oral gavage or 1 mg/Kg CA39 or CA77 by intravenous injection using 30% PEG-400, 65% D5W (5% dextrose in water), 5% Tween-80 vehicle. Mice were sacrificed, and brain samples were harvested at 0 hr, 0.25 hr, 0.5 hr, 1 hr, 2 hr, 4 hr, 8 hr, 24 hr, and analyzed for CA39 or CA77 levels using LC-MS/MS. Pharmacokinetics parameters were calculated using Phoenix WinNonlin 6.3. Experiments performed at SIMM-SERVIER joint Biopharmacy Laboratory.

[2] = tested on: human cells; test: CMA activity, KFERQ-PS-Dendra reporter in human cells; type: cell-based
Procedure: Cells: NIH3T3 mouse fibroblasts and the N2a neuroblastoma cell line were obtained from the American Type Culture Collection and were validated by genomic PCR. Primary human fibroblasts (GM01651) were from Coriell Repository. All the cells lines were tested for mycoplasma contamination using DNA staining protocol with Hoechst 33258 dye. Knock-down of NCoR1 was done using lentiviral mediated shRNA (SHCLNG-NM_011308) from the Sigma Mission library following standard procedures. Efficiency of knock-down was tested by immunoblot. Cell viability was measured using the CellTiter-Blue kit (Promega) 24 h after the addition of the different stressors according to manufacturer's instructions.
CMA activity: Cells were transduced with lentivirus carrying the KFERQ-PS-Dendra reporter as before. Cells were photoactivated by exposure to a 3.5 mA (current constant) light emitting diode (LED: Norlux, 405 nm) for 3 min and then plated in glass-bottom 96 well plates. At the desired times, cells were fixed with 4% PFA and imaged using high-content microscopy (Operetta system, Perkin Elmer). Images were quantified using the manufacturer's software in a minimum of 1,200 cells in 9 independent fields per well. […] To avoid con-funding effects for drug-induced changes in cell volume or adherence to the plate that could bring a fraction of the cells per field outside of focus, we set a threshold to count only cells that have at least 1/10 of the average number of […] detected in the untreated wells for each cell type (3-4 puncta/cell in the case of NIH3T3 and N2a cells and 5 puncta/cell in primary human fibroblasts). […] Slices were mounted in DAPI-Fluoromount-G to highlight the cell nucleus and allow quantification of puncta per cell. Images were acquired in x-y-z planes with an Axiovert 200 fluorescence microscope (Carl Zeiss Ltd) with a ×63 objective and 1.4 numerical aperture, mounted with an ApoTome.2 slider or with a Confocal microscope (TCS SP5; Leica) using an HCX Plan Apo CS×63.0 1.40 NA oil objective and the Leica Application Suite X (LAS X).

[3] = tested on: KFERQ-Dendra mice; test: CMA activation in vivo in KFERQ-Dendra mice; design: species or system mouse; conditions: i.p. 30 mg/kg bw daily, three days
From the text: Animals: C57BL/6J mice wild-type (WT) and homozygous for the Pde6 mutation (rd10 mouse model of retinal degeneration) were obtained from The Jackson Laboratory. C57BL/6 KFERQ-Dendra mice were generated by back-crossing FVB KFERQ-Dendra mice with wild-type C57BL/6 mice for 8 generations. Both male and female animals were used in this study in equal distribution groups. However, results from both sexes were pooled, because of absence of significant differences in any of the parameters analyzed after statistical analysis with a mixed model of two-way ANOVA sex and treatment as independent variables and the corresponding measure as dependent variable. […]
CMA activity: Cells were transduced with lentivirus carrying the KFERQ-PS-Dendra reporter as before. […] Images were quantified using the manufacturer's software in a minimum of 1,200 cells in 9 independent fields per well. […] To avoid con-funding effects for drug-induced changes in cell volume or adherence to the plate that could bring a fraction of the cells per field outside of focus, we set a threshold to count only cells that have at least 1/10 of the average number of […] detected in the untreated wells for each cell type (3-4 puncta/cell in the case of NIH3T3 and N2a cells and 5 puncta/cell in primary human fibroblasts). […] Slices were mounted in DAPI-Fluoromount-G to highlight the cell nucleus and allow quantification of puncta per cell. […]

[4] = In vitro stability in liver microsomes; type: in vitro ADME; conditions: human liver microsomes
Procedure: In vitro solubility in the following conditions A) HBSS/HEPES 10 mM/BSA 0.1% pH 6 B) HBSS/HEPES 10 mM/BSA 0.1% pH 7.4 C) TRIS/BSA 0.1% PBS (pH 7.4 and at indicated doses were measured by Nephelometry using the NEPHELOstar Galaxy apparatus (BMG Lab Technologies). In vitro stability in human, mouse and rat liver microsomes and permeability using a bidirectional permeability assay with CaCo-2 cells (pH 6.5/7.4) assays were performed with standard methodology and analyzed by LC-MS/MS. at SIMM-SERVIER joint Biopharmacy Laboratory. In silico ADME properties calculated by QikProp (Schrodinger, LLC) analysis and ADME predictions for CA39 (left) and CA77 (right).

[5] = tested on: NIH3T3 cells; conditions: previously reported; cited from earlier work

Structure (SMILES) | half-life ([1]; male, ICR (CD-1), mouse, plasma, intravenous, 1 mg/kg, route not printed (second pair of values), read-out: half-life in plasma (converted)) | blood brain barrier crossing [1] | half-life in brain ([1]; IV 1 mg/kg) | half-life in brain ([1]; PO 30 mg/kg) | half-life in plasma ([1]; PO 30 mg/kg) | brain to plasma ratio [1] | CMA activation [2] | CMA activation in vivo [3] | metabolic stability [4] | toxicity [5]
Clc1ccc2c(c1)OCC(c1ccc(-c3ccccc3)cc1)=N2 [CA39] | 8.2 h | efficiently crossed the brain blood barrier | 8 h | 10 h | 7.5 h | high | efficiently activate CMA | activate CMA with comparable potency in vivo both in peripheral blood cells and in multiple organs | high to intermediate | without noticeable toxicity
CC(=O)Nc1ccc(C2=Nc3ccc(Cl)cc3OC2)cc1 [CA77] |  | efficiently crossed the brain blood barrier | 1.8 h | 4.2 h | 2.2 h | high | efficiently activate CMA | activate CMA with comparable potency in vivo both in peripheral blood cells and in multiple organs | high to intermediate | without noticeable toxicity
